# Results published in patent US20100297109A1, “METHODS FOR INHIBITING FASCIN” (Cornell University, priority 2007, published 2010).
# Read-outs that look alike come from different tables or passages of the source.
# Experiments:
# [1] = test system: 4T1 tumor cells; test: 4T1 mouse mammary tumor model, spontaneous lung metastasis; assay type: in vivo
# [2] = test system: 4T1 cells; settings: read-out: IC50, 4T1 cell migration, cited from earlier work
# [3] = Gaul et al. 2004; cited from earlier work
# [4] = test system: 4T1 cells; test: Boyden chamber cell migration assay, serum-induced migration of 4T1 cells; assay type: cell-based, mouse; settings: FIGS. 1C and 1D
# Procedure: (§1) Cells. Mouse 4T1 mammary tumor cells and human MDA-MB-231 breast tumor cells were obtained from ATCC and have been described previously (Shan et al. 2005, Yang et al. 2005). 4T1 cells were cultured in RPMI 1640 medium supplemented with 10% FBS. MDA-MB-231 cells were cultured in DMEM supplemented with 10% FBS. Wound-healing assay. The wound-healing assay involves observing whether confluent cells can migrate across a scrape or wound in the cell layer. Cell migration assays were performed as described previously (Yang et al. 2005, Shan et al 2006). Tumor cells were plated in a 24-well plate coated with gelatin in standard media. […] Photographs several random regions of the filter facing the second chamber are taken and the number of cells counted to calculate the average number of cells that had transmigrated.
# (§2) Boyden Chamber Cell Migration Assay. […] Three randomly selected fields (10× objectives) on the lower side of the insert were photographed, and the migrated cells were counted. The migration was expressed as either the average number of migrated cells in a field or as percentage of migrated cells in positive control. Percentage was calculated with the formula P=100×(M−Mnc)/Mpc, where P is the percentage of migrated cells, M is the number of migrated cells, Mnc is the number of migrated cells in negative controls, and Mpc is the number of migrated cells in positive controls.
# [5] = biological target: fascin (Homo sapiens, UniProt Q16658); test: GST-fascin and biotin-macroketone interaction; assay type: binding; parameters: made in house; host or cells: Escherichia coli BL21; settings: excess unlabeled compound
# Procedure: Whole cell lysates from 4T1 mouse breast tumor cells were made. After preclearing the cell lysate with immobilized neutravidin biotin binding protein (Pierce, IL, USA) to remove biotin and avidin-binding proteins, the cell lysates were loaded to a column packed with the biotin-labeled macroketone (conjugated to neutravidin beads). A control column packed with free biotin and neutravidin beads was run side-by-side. After washing the column with 10 bed volumes of lysis buffer with 300 mM NaCl, the bound proteins were eluted with 0.1 M Glycine-HCl at pH 2.8 according to the manufacturer's instruction. […] Protein Expression and Purification. Recombinant GST-fascin fusion protein was produced in BL21 Escherichia coli. A 1-liter culture was grown to an A600 reading of 1.0 and then induced by addition of 0.3 mM isopropyl 1-thio-D-galactopyranoside (IPTG) for 12 hours at 25° C. Cells were flash frozen and then lysed by sonication in Tris-buffered saline. The supernatant was then incubated with glutathione-Sepharose for 2 h at 4° C. After extensive washing, GST-fascin was eluted and concentrated with a Centricon Plus-20 (Millipore). To remove the GST tag from the fusion protein, beads were incubated with thrombin overnight at 4° C. The supernatant was collected and concentrated. GST-fascin and Biotin-macroketone Interaction. […] Proteins associated with biotin-macroketone were precipitated with Untralink-immobilized NeutrAvidin agarose (Pierce). After extensive washing, bound proteins were eluted with SDS sample buffer and resolved by 10% SDS-PAGE. F-Actin Bundling Assay. Actin bundling activity was measured by low speed centrifugation assay and fluorescence microscopy. In low-speed centrifugation assay, monomeric rabbit G-actin was induced to polymerize at room temperature in F-actin buffer (20 mM Tris-HCl at pH 8, 1 mM ATP, 1 mM DTT, 2 mM MgCl2 and 100 mM KCl). Recombinant fascin proteins or control buffer were subsequently incubated with F-actin for 60 min at room temperature and centrifuged for 30 min at 10,000 g in an Eppendorf 5415D table-top centrifuge.
# [6] = test system: human colon tumor Lovo cells; test: Cell migration assay, Lovo cells; assay type: cell-based
# [7] = test system: 4T1 cells; settings: serum, Shan et al. 2005; cited from earlier work
# [8] = test system: human breast tumor MDA-MB 231 cells; test: Cell migration assay, MDA-MB-231 cells; assay type: cell-based
# Procedure: as §1, §2
# [9] = test system: human breast tumor MDA-MB-231 cells; test: Wound-healing assay, serum-induced migration of MDA-MB-231 cells; assay type: cell-based; settings: 20 μM
# Procedure: as §1, with “media. After the cells grew to confluence, wounds were made in the confluent layer of cell using a sterile instrument such as a sterile pipette tip. The cells were washed with Phosphate Buffered Saline (PBS) or other sterile solutions and then the migration was induced by adding medium supplemented with 10% FBS. When the wound for the positive control closed, cells were fixed with 3.7% formaldehyde and stained with crystal violet staining solution.” for “media.”
# [10] = test system: human prostate tumor PC-3 cells; test: Cell migration assay, PC-3 cells; assay type: cell-based
# [11] = test system: mouse embryonic fibroblast (MEF) cells; test: Wound-healing assay, serum-induced migration of MEF cells; assay type: cell-based; settings: 200 μM
# [12] = test system: mouse breast tumor 4T1 cells; test: Wound-healing assay, serum-induced migration of 4T1 cells; assay type: cell-based; settings: 2 μM
# Procedure: as §1, with “media. After the cells grew to confluence, wounds were made in the confluent layer of cell using a sterile instrument such as a sterile pipette tip. The cells were washed with Phosphate Buffered Saline (PBS) or other sterile solutions and then the migration was induced by adding medium supplemented with 10% FBS. When the wound for the positive control closed, cells were fixed with 3.7% formaldehyde and stained with crystal violet staining solution.” for “media.”
# [13] = test system: several types of tumor cells; settings: Nakae et al. 2000, cited from earlier work
# [14] = Njardarson et al. 2004, Gaul et al. 2004
smiles,measurement,setting,value
"C=CC(OC)C(O[Si](C)(C)C(C)(C)C)C(C)C=C(C)CO (centres unmarked) [migrastatin semi-core, reference compound]",effect on 4T1 tumor metastasis,[1]; 10 and 20 mg/kg,did not significantly reduce
same,IC50,[2]; [14],40 µM
COC1C=CCCCCC(=O)OCC(C)=CC(C)C1O (centres unmarked) [macrolactone],half-life in mouse plasma,[3],< 5 min
same,effect on 4T1 tumor metastasis,[1]; 20 mg/kg,"statistically significant, it was much less than those of macroketone and macrolactam"
same,IC50,"[2]; macrolactone, Gaul et al. 2004",0.024 µM
"COC1C=CCCCCC(=O)NCC(C)=CC(C)C1O (centres unmarked) [macrolactam, Migrastatin lactam]",IC50,[4],0.255 µM
same,competition of binding of biotin-conjugated macroketone to fascin,[5],competed the binding
same,inhibition of migration,[6],inhibited the migration
same,formation of lamellipodia at the leading edge,[7],inhibited the formation of lamellipodia
same,inhibition of migration,[8],inhibited the migration
same,inhibition of serum-induced migration (wound-healing),[9],inhibited the migration
same,inhibition of migration,[10],inhibited the migration
same,effect on serum-induced migration (wound-healing),[11],had no effect
same,inhibition of serum-induced migration (wound-healing),[12],inhibited the migration
"CO[C@H]1/C=C/CC/C=C/C(=O)OC([C@H](C)C(=O)CCCC2CC(=O)NC(=O)C2)/C(C)=C\[C@@H](C)[C@@H]1O (some centres unmarked) [migrastatin, Migrastatin]","biosyntheses of DNA, RNA, and protein",[13],has no effect
same,migration of tumor cells in vitro,[13]; high micromolar concentrations,inhibits the migration
same,IC50,[2]; [14],29 µM
